Measured values from patent publication US20250059165A1, “PIPERIDINYLPYRIDINYLCARBONITRILE DERIVATIVES AS INHIBITORS OF GLUTAMINYL-PEPTIDE CYCLOTRANSFERASE AND GLUTAMINYL-PEPTIDE CYCLOTRANSFERASE LIKE PROTEIN” (Boehringer Ingelheim International GmbH, priority 2023, published 2025).

What was measured:
[1] = biological target: T1, QPCTL (Homo sapiens, UniProt Q9NXS2); assay: Assay A: biochemical QPCTL activity assay (MALDI-TOF MS, CD47 peptide substrate); conditions: 0.5 nM enzyme, 10 μM CD47 peptide substrate; read-out: Inhibition of QPCTL: IC50
T1 construct: made in house
Method: (§1) QPCT or QPCTL dependent conversion of N-terminal glutamine to pyroglutamate of CD47 was monitored via MALDI-TOF MS. Test compounds were dissolved in 100% DMSO and serially diluted into clear 1,536-well microtiter plates. […] The plates were incubated for 10 min in a humidified incubator at 24° C. Subsequently, 2.5 μL of CD47 peptide substrate surrogate (^19[…]^33) was added to each well (final concentration: 10 μM for QPCTL/20 μM for QPCT). […] The plates were sealed with an adhesive foil, mixed for 30 s at 1,000 rpm and stored at room temperature until preparation of the MALDI target plates. MALDI target plates were prepared as described previously. […] QPCT or QPCTL activity was monitored by calculating the ratio between product and internal standard signals followed by normalization to high (100% activity) and low (0% activity) controls. Determination of compound potencies was obtained by fitting the dose-response data to a four-parameter logistical equation.

[2] = biological target: T2, QPCT (Homo sapiens, UniProt Q16769); assay: Assay A: biochemical QPCT activity assay (MALDI-TOF MS, CD47 peptide substrate); conditions: 0.5 nM enzyme, 20 μM CD47 peptide substrate; read-out: Inhibition of QPCT: IC50
T2 construct: purchased Origine (OriGene) TP700028
Method: as §1

[3] = system: SIRPα signalling induced by Raji cells; assay: Assay B: SIRPα signalling assay using Raji cells; format: cell-based; conditions: Homo sapiens, 48 h compound incubation, Jurkat PathHunter SIRPαV1 reporter cells, read-out: Inhibition of SIRPα signalling induced by Raji cells: IC50
Method: (§2) Two cell types are independently used: the Raji cell line (lymphoblast-like human cell line derived from B lymphocytes from a Burkitt's lymphoma patient in 1963) and A549 cells (adenocarcinomic human alveolar basal epithelial cells).
(§3) Test compounds were dissolved in 100% DMSO and serially diluted into a white 384-well microtiter cell culture plate (PerkinElmer #60076780 in case of Raji assay; PDL-coated plates Greiner #781945 in case of A549 assay). 5000 Raji cells (ATCC #CC86) or 5000 A549 cells (ATCC #CCL-185) in Assay Complete Cell Plating reagent 30 (DiscoverX 93-0563R30B) were added per well. The assay plate was incubated for 48 h at 37° C., 95% humidity and 5% CO2. 15000 reporter cells (Jurkat PathHunter SIRPαV1, DiscoverX #93-1135C19) were added to each well, and the plate was incubated for 5 h at 37° C., 95% humidity and 5% CO2. Bioassay reagent 1 of the PathHunter Bioassay detection kit (DiscoverX 93-0001) was added to each well of the plate using a multichannel pipette followed by a 15 min incubation at room temperature. Afterwards bioassay reagent 2 was added followed by […] incubation at room temperature (incubation in the dark). The analysis of the data was performed using the luminescence signal generated by beta-galactosidase in the PathHunter reporter cell line. The luminescence measurement was done using a Pherastar Multi-Mode Reader. Dose-response curves & IC50 data were calculated with 4-parameter sigmoidal dose response formula.

[4] = system: SIRPα signalling induced by A549 cells; assay: Assay B: SIRPα signalling assay using A549 cells; format: cell-based; conditions: Homo sapiens, 48 h compound incubation, Jurkat PathHunter SIRPαV1 reporter cells, read-out: Inhibition of SIRPα signalling induced by A549 cells: IC50
Method: as §2, §3

[5] = Assay C: permeability in CACO-2 cells; format: in vitro ADME; conditions: human, pH 7.2; for efflux ratio: Caco-2, Permeability B-A/Permeability A-B; for Papp A→B: Caco-2, apical to basolateral
Method: Caco-2 cells (1−2×10^5 cells/1 cm^2 area) are seeded on filter inserts (Costar transwell polycarbonate or PET filters, 0.4 µm pore size) and cultured (DMEM) for 10 to 25 days. Compounds are dissolved in appropriate solvent (like DMSO, 1-20 mM stock solutions). […] The transport solution (TL) is applied to the apical or basolateral donor side for measuring A-B or B-A permeability (3 filter replicates), respectively. Samples are collected at the start and end of experiment from the donor and at various time intervals for up to 2 hours also from the receiver side for concentration measurement by HPLC-MS/MS or scintillation counting. Sampled receiver volumes are replaced with fresh receiver solution. Efflux Ratio (ER)=Permeability B-A/Permeability A-B

T1 sequence (Q9NXS2 whole entry): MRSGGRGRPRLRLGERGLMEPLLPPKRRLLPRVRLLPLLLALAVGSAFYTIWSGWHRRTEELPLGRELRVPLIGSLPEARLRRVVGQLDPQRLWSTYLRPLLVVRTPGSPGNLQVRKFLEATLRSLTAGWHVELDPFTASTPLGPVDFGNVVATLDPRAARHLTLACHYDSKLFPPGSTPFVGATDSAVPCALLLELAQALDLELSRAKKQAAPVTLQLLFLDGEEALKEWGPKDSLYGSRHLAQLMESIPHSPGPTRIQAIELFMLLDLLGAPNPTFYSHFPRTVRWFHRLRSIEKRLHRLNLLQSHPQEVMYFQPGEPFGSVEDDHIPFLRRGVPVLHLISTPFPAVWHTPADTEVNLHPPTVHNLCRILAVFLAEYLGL
T2 sequence (Q16769 29-361): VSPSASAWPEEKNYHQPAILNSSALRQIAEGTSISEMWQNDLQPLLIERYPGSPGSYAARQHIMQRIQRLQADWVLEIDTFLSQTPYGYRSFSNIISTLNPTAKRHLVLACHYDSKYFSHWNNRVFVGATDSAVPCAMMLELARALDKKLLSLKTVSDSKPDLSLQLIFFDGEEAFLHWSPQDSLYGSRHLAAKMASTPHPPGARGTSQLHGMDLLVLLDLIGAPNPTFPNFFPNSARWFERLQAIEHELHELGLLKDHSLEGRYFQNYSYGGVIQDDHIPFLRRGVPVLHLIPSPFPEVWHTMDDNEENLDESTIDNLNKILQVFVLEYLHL

Row | Compound | IC50 [1] [nM] | IC50 [2] [nM] | IC50 [3] [nM] | IC50 [4] [nM] | efflux ratio [5] | Papp A→B [5] [×10⁻⁶ cm/s]
1 | Cn1cnnc1C1(F)CCN(c2c(C#N)ccnc2-c2cncc(-c3ncco3)c2)CC1 [Example 11] | 13 | 48 | 1170 | 419 | 5 | 13
2 | Cn1cnnc1C1(F)CCN(c2c(C#N)ccnc2-c2cnn3nc(-c4ccccc4F)ccc23)CC1 [Example 31] | 3 | 3 | 54 | 31 | 1.2 | 54
3 | Cn1c(N)nnc1C1CCN(c2ncccc2-c2ccc(F)nc2)CC1 [Prior art Compound 6, reference compound] | 1 | 1 | 8 | 12 | 65 | 0.2
4 | Cn1cnnc1C1(F)CCN(c2c(C#N)cc(C3CC3(F)F)nc2-c2cnc3nn(C(C)(C)C)cc3c2)CC1 (stereo not shown) [Example 4] | – | – | 15 | 17 | – | 8.8
5 | Cn1cnnc1C1CCN(c2ncccc2-c2ccc(F)nc2)CC1 [SEN177, reference compound] | – | – | 1360 | 214 | – | –
6 | Cn1cnnc1C1(F)CCN(c2c(C#N)ccnc2-c2cnn3nc(-c4ccc(Cl)cc4Cl)ccc23)CC1 [Example 20] | 2 | 3 | 83 | 29 | – | –
7 | Cn1cnnc1C1(F)CCN(c2c(C#N)ccnc2-c2cnn3nc(-c4ccccc4Cl)ccc23)CC1 [Example 29] | 2 | 1 | 64 | 27 | 1.7 | 39
8 | CC(C)c1ccccc1-c1ccc2c(-c3nccc(C#N)c3N3CCC(F)(c4nncn4C)CC3)cnn2n1 [Example 30] | 2 | 1 | 87 | 17 | 0.7 | 46
9 | Cn1cnnc1C1(F)CCN(c2c(C#N)ccnc2-c2cnc3nnn(Cc4ccc(C(F)(F)F)nc4)c3c2)CC1 [Example 14] | 3 | 11 | 673 | 202 | 32.8 | 0.7
10 | Cn1cc(-c2ccc3c(-c4nccc(C#N)c4N4CCC(F)(c5nncn5C)CC4)cnn3n2)cn1 [Example 25] | 1 | 6 | 150 | 78 | 7.7 | 5.3
11 | Cc1ccccc1-c1ccc2c(-c3nccc(C#N)c3N3CCC(F)(c4nncn4C)CC3)cnn2n1 [Example 19] | – | – | 20 | 6 | – | –
12 | Cn1cnnc1C1(F)CCN(c2c(C#N)cc(C(F)(F)F)nc2-c2cnc3nc(C(C)(C)C)oc3c2)CC1 [Example 16] | – | – | 27 | 32 | – | 33
13 | COc1cc(C#N)c(N2CCC(F)(c3nncn3C)CC2)c(-c2ccc(F)nc2)n1 [Example 5] | 4 | 9 | 617 | 60 | 1.6 | 27
14 | Cn1cnnc1C1(F)CCN(c2c(C#N)ccnc2-c2cnn3nc(-c4ccccc4C#N)ccc23)CC1 [Example 22] | 2 | 2 | 117 | 51 | – | –
15 | Cn1cnnc1C1(F)CCN(c2c(C#N)ccnc2-c2cnc3nn(Cc4ccc(C(F)(F)F)nc4)nc3c2)CC1 [Example 13] | 8 | 24 | 596 | 358 | 9 | 6.2
16 | Cn1cnnc1C1(F)CCN(c2c(C#N)ccnc2-c2cnn3nc(-c4cc(Cl)ccc4C#N)ccc23)CC1 [Example 18] | 2 | 1 | 44 | 16 | – | –

Row | Compound | IC50 [1] [nM] | IC50 [2] [nM] | IC50 [3] [nM] | IC50 [4] [nM] | efflux ratio [5] | Papp A→B [5] [×10⁻⁶ cm/s]
17 | Cn1cnnc1C1(F)CCN(c2c(C#N)ccnc2-c2cnn3nc(-c4cccc(Cl)c4)ccc23)CC1 [Example 28] | – | – | 70 | 53 | – | 28
18 | Cn1cnnc1C1(F)CCN(c2c(C#N)ccnc2-c2cnn3nc(-c4c(F)cccc4F)ccc23)CC1 [Example 21] | 2 | 1 | 16 | 11 | – | –
19 | Cn1cnnc1C1(F)CCN(c2c(C#N)ccnc2-c2cnn3nc(-c4cccnc4Cl)ccc23)CC1 [Example 17] | 5 | 5 | 274 | 71 | – | –
20 | Cc1noc(C)c1-c1ccc2c(-c3nccc(C#N)c3N3CCC(F)(c4nncn4C)CC3)cnn2n1 [Example 24] | 14 | 8 | 981 | 184 | 4.6 | 16
21 | Cn1cnnc1C1(F)CCN(c2c(C#N)cc(C(C)(C)O)nc2-c2cnc3nn(C(C)(C)C)c(Cl)c3c2)CC1 [Example 2] | – | – | 20 | 40 | – | 4.5
22 | Cn1cnnc1C1(F)CCN(c2c(C#N)ccnc2-c2cnn3nc(-c4ccc(Cl)cc4)ccc23)CC1 [Example 27] | 4 | 3 | 106 | 52 | 2.2 | 16
23 | Cn1cnnc1C1(F)CCN(c2c(C#N)cc(C(F)(F)F)nc2-c2cnc3occc3c2)CC1 [Example 15] | 15 | 58 | 296 | 410 | 1.6 | 47
24 | Cn1cnnc1C1(F)CCN(c2c(C#N)cc(C3CC3(F)F)nc2-c2ccc(F)nc2)CC1 (stereo not shown) [Example 3] | 1 | 4 | 131 | 40 | 1.3 | 47
25 | Cn1cnnc1C1(F)CCN(c2c(C#N)ccnc2-c2cnc(F)c(N)c2)CC1 [Example 9] | 2 | 4 | 103 | 39 | 4.5 | 5.8
26 | COc1ccc(-c2ccc3c(-c4nccc(C#N)c4N4CCC(F)(c5nncn5C)CC4)cnn3n2)c(F)c1 [Example 23] | 4 | 4 | 158 | 46 | – | –
27 | Cn1cnnc1C1(F)CCN(c2c(C#N)ccnc2-c2cnc3nn(Cc4ccccc4)nc3c2)CC1 [Example 12] | 3 | 4 | 150 | 45 | 9.9 | 9.4
28 | COCCOc1ncc(-c2nccc(C#N)c2N2CCC(F)(c3nncn3C)CC2)cn1 [Example 10] | 8 | 30 | 536 | 283 | 13.1 | 1.6
29 | Cc1ccc(-c2ccc3c(-c4nccc(C#N)c4N4CCC(F)(c5nncn5C)CC4)cnn3n2)c(C)c1 [Example 32] | – | – | 72 | 21 | – | 60
30 | Cn1cnnc1C1(F)CCN(c2c(C#N)ccnc2-c2cnc3nc(-c4cccc(Cl)c4)ccn23)CC1 [Example 33] | 1 | 2 | 53 | 30 | 6.2 | 13
31 | COc1cnc(-c2ccc(F)nc2)c(N2CCC(F)(c3nncn3C)CC2)c1C#N [Example 7] | 8 | 12 | 568 | 200 | 5.5 | 15
